Experimental findings from PubChem BioAssay (NCI) are described below.

Among the test systems are CCRF-CEM leukemia; NCI-H522 lung; NCI/ADR-RES ovarian; PC-3 prostate; RPMI-8226 leukemia; SF-295 CNS; SK-OV-3 ovarian; SN12C renal; SW-620 colon; UACC-62 melanoma.
Assay in all cases: growth of human tumour cells (NCI), 48 h

Values joined by “and” are separate entries in the source; they are usually repeats but may differ in a detail not shown here. Identical values can stand only once.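 A five-concentration, 48-hour dose response in 96-well plates underlies each endpoint, interpolated linearly between surrounding concentrations. GI50 = concentration required for 50% inhibition of growth. TGI marks complete inhibition of growth.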

Take `CN(C)CCOc1nc2c3cccnc3cc(-c3cccc(Cl)c3)c2c2ncccc12`: the GI50 was 1.26 µM with CCRF-CEM leukemia; 1.47 µM in the assay on NCI-H522 lung; 1.42 µM in the assay on NCI/ADR-RES ovarian; 2.17 µM in the assay with PC-3 prostate; 2.34 µM in the assay with RPMI-8226 leukemia; 1.13 µM in the assay on SF-295 CNS. The GI50 with SK-OV-3 ovarian is 5.05 µM; in the assay on SN12C renal it was 1.51 µM; in the assay with SW-620 colon it was 0.684 µM; with UACC-62 melanoma, 2.15 µM. Also, the TGI in the assay on CCRF-CEM leukemia stood at 6.73 µM; with NCI-H522 lung, 3.06 µM; in the assay on NCI/ADR-RES ovarian, 2.82 µM; in the assay with PC-3 prostate, 5.95 µM; with RPMI-8226 leukemia it was 6.24 µM; in the assay with SF-295 CNS, 2.5 µM. Besides, the TGI in the assay on SK-OV-3 ovarian is 18.4 µM; in the assay on SN12C renal it was 7.03 µM; in the assay with SW-620 colon it was 2.19 µM; with UACC-62 melanoma, 4.91 µM.
As to `COc1cccc(Cn2cc3c(c2)-c2oncc2CC3)c1`, the GI50 with CCRF-CEM leukemia was 0.253 µM; in the assay on NCI-H522 lung, 0.326 µM; in the assay with NCI/ADR-RES ovarian, 0.317 µM; in the assay on PC-3 prostate, 0.751 µM; with RPMI-8226 leukemia, 0.365 µM; with SF-295 CNS, 0.245 µM. Besides, the GI50 is 0.361 µM with SK-OV-3 ovarian, 0.597 µM in the assay on SN12C renal, 0.319 µM with SW-620 colon and 0.662 µM in the assay with UACC-62 melanoma. For the same compound, the TGI is 1.89 µM in the assay with NCI-H522 lung; > 100 µM with PC-3 prostate; 1.04 µM with SF-295 CNS; 6.03 µM in the assay on SK-OV-3 ovarian; > 100 µM in the assay with SN12C renal; > 100 µM with SW-620 colon. For the same compound, the TGI in the assay with UACC-62 melanoma was > 88.8 µM.
For `CC(C)=CCC/C(C)=C/CC/C(=C/COP(=O)(OCc1ccc([N+](=O)[O-])o1)N(C)CCCCCl)CC=C(C)C` (centres undefined), the GI50 is 6.16 µM in the assay with CCRF-CEM leukemia; 2.04 µM in the assay on NCI-H522 lung; 6.11 µM in the assay with NCI/ADR-RES ovarian; 8.62 µM with PC-3 prostate; 3.56 µM in the assay on RPMI-8226 leukemia; 7.14 µM with SF-295 CNS. Moreover, the GI50 was 18.2 µM with SK-OV-3 ovarian, 2.98 µM in the assay with SN12C renal, 2.92 µM in the assay with SW-620 colon and 14.3 µM in the assay with UACC-62 melanoma. Further, the TGI in the assay on CCRF-CEM leukemia is > 100 µM; with NCI-H522 lung, 7.47 µM; with NCI/ADR-RES ovarian, 21.3 µM; with PC-3 prostate, 24.3 µM; in the assay on RPMI-8226 leukemia it was > 100 µM; in the assay on SF-295 CNS it was 26 µM. The TGI is 55.8 µM with SK-OV-3 ovarian, 12.3 µM in the assay on SN12C renal, 6.98 µM with SW-620 colon and 32.5 µM in the assay with UACC-62 melanoma.
On to `CCOC(=O)N1C/C(=C/c2ccc(OC)cc2)C(=O)/C(=C/c2ccc(OC)cc2)C1`, for which the GI50 is 2.85 µM with CCRF-CEM leukemia; 2.91 µM with NCI-H522 lung; 3.35 µM in the assay on NCI/ADR-RES ovarian; 2.53 µM in the assay on PC-3 prostate; 0.211 µM with RPMI-8226 leukemia; 2.17 µM in the assay with SF-295 CNS. Also, the GI50 in the assay with SK-OV-3 ovarian is 3.63 µM; in the assay on SN12C renal it was 1.91 µM; in the assay on SW-620 colon, 1.37 µM; in the assay with UACC-62 melanoma, 1.92 µM. Besides, the TGI was > 100 µM with CCRF-CEM leukemia; 11.1 µM in the assay on NCI-H522 lung; > 100 µM in the assay on NCI/ADR-RES ovarian; 8.61 µM with PC-3 prostate; 1.6 µM with RPMI-8226 leukemia; 5.81 µM with SF-295 CNS. The TGI with SK-OV-3 ovarian is 16.6 µM; in the assay with SN12C renal it was 4.23 µM; with SW-620 colon, 4.4 µM; with UACC-62 melanoma, 5.4 µM.
For the compound `Oc1ccc(Br)cc1/C=N/NC(=S)NC12CC3CC(CC(C3)C1)C2`, the GI50 in the assay on CCRF-CEM leukemia is 0.897 µM; in the assay with NCI-H522 lung it was 4.78 µM; with NCI/ADR-RES ovarian, 2.71 µM; in the assay on PC-3 prostate it was 1.64 µM; in the assay with RPMI-8226 leukemia, 2.07 µM; with SF-295 CNS it was 2.6 µM. The GI50 in the assay on SK-OV-3 ovarian was 3.54 µM; with SN12C renal it was 1.63 µM; with SW-620 colon it was 1.74 µM; with UACC-62 melanoma, 2.37 µM. Also, the TGI in the assay with CCRF-CEM leukemia turned out to be 8.14 µM; in the assay with NCI-H522 lung, 16.1 µM; with NCI/ADR-RES ovarian, 7.89 µM; in the assay on PC-3 prostate it was 4.94 µM; in the assay with RPMI-8226 leukemia it was 5.8 µM; in the assay with SF-295 CNS, 7.89 µM. In addition, the TGI with SK-OV-3 ovarian was found to be 11.9 µM; in the assay on SN12C renal, 3.18 µM; in the assay with SW-620 colon, 3.47 µM; in the assay with UACC-62 melanoma it was 7.83 µM.
On to `COc1ccc2[nH]c(-c3cccc(N(C)C)c3)cc(=O)c2c1`, for which the TGI was 0.907 µM in the assay on CCRF-CEM leukemia; 0.526 µM and 2.56 µM in the assay with NCI-H522 lung; > 100 µM with PC-3 prostate; 0.844 µM with RPMI-8226 leukemia; 59.2 µM in the assay on SK-OV-3 ovarian; > 100 µM in the assay on SN12C renal. For the same compound, the TGI with SW-620 colon and in the assay with UACC-62 melanoma was > 100 µM each time. In addition, the GI50 in the assay on NCI-H522 lung is 0.407 µM; in the assay with NCI/ADR-RES ovarian, 0.487 µM; with PC-3 prostate it was 0.435 µM; in the assay on RPMI-8226 leukemia, 0.443 µM; with SF-295 CNS it was 3.71 µM; with SK-OV-3 ovarian it was 0.573 µM. The GI50 in the assay on SN12C renal was 0.654 µM; with SW-620 colon, 0.303 µM; in the assay on UACC-62 melanoma, 0.483 µM.
Regarding `Cc1ccccc1-n1c(/C=C\c2ccccn2)nc2ccccc2c1=O`, the GI50 in the assay on CCRF-CEM leukemia was 4.24 µM; in the assay on NCI-H522 lung, 5.7 µM; with NCI/ADR-RES ovarian, 7.16 µM; in the assay on PC-3 prostate, 6.41 µM; with RPMI-8226 leukemia it was 2.51 µM; with SF-295 CNS, 6.76 µM. Further, the GI50 is 35.3 µM with SK-OV-3 ovarian, 21.2 µM with SN12C renal, 13.2 µM in the assay on SW-620 colon and 14.2 µM in the assay on UACC-62 melanoma. Besides, the TGI is 30.1 µM in the assay on CCRF-CEM leukemia; 39.1 µM with NCI-H522 lung; 79.5 µM in the assay with NCI/ADR-RES ovarian; 65.4 µM in the assay on PC-3 prostate; 15 µM with RPMI-8226 leukemia; 47.3 µM in the assay on SF-295 CNS. Besides, the TGI with SK-OV-3 ovarian was > 100 µM; in the assay on SN12C renal, > 100 µM; with SW-620 colon, 56.2 µM; in the assay with UACC-62 melanoma it was 45 µM.
In the case of `COC(=O)c1c2c(c(C)[n+]([O-])c1C)C(=O)C(NCc1cccc(OC)c1)=CC2=O`, the GI50 in the assay on CCRF-CEM leukemia is 3.09 µM; with NCI-H522 lung it was 1.92 µM; with NCI/ADR-RES ovarian it was 2.36 µM; with PC-3 prostate it was 2.63 µM; in the assay on RPMI-8226 leukemia, 2.93 µM; in the assay on SF-295 CNS, 2.05 µM. Moreover, the GI50 in the assay with SK-OV-3 ovarian is 3.53 µM; with SN12C renal, 1.97 µM; with SW-620 colon, 2.65 µM; in the assay on UACC-62 melanoma, 1.7 µM. The TGI came out at 17.1 µM in the assay on CCRF-CEM leukemia; 5.02 µM in the assay with NCI-H522 lung; 6.74 µM in the assay with NCI/ADR-RES ovarian; 14.8 µM in the assay with PC-3 prostate; 15.9 µM with RPMI-8226 leukemia; 6.13 µM in the assay on SF-295 CNS. In addition, the TGI amounted to 13.6 µM with SK-OV-3 ovarian, 4.94 µM in the assay with SN12C renal, 8.96 µM in the assay on SW-620 colon and 3.48 µM in the assay on UACC-62 melanoma.
